Measurements reported in US20250057802A1, “BROAD-SPECTRUM ANTIVIRAL DRUGS” (FRAUNHOFER-GESELLSCHAFT ZUR FÖRDERUNG DER ANGEWANDTEN …, priority 2021, published 2025).

Columns and labels:
RSV = test: in vitro RSV inhibitory assay (virus pre-incubated with compound, HEp-2 cells, infected cells counted); type: cell-based, Human orthopneumovirus (RSV); details: human respiratory syncytial virus, 10 min; RSV incubated with compound 10 min at 37° C., added to HEp-2 cells, 2 dpi
HEp-2 cells = test: in vitro cytotoxicity analysis (CellTiter-Glo Luminescent Cell Viability Assay); type: cell-based, human; set-up: unit not given here; details: without RSV-infection, 48 h post-treatment
Protocol: FIG. 1A, FIG. 2A, FIG. 3A, FIG. 4A, FIG. 5A, and FIG. 6A show dose-response curves for identified inhibitors against RSV. RSV was incubated with increasing concentrations of compounds for 10 min at 37° C. before the compound-virus mixtures were added to human epithelial cells (HEp-2). 2 dpi, infection rates were measured by counting infected cells. Vehicle-treated cells were set as the reference at 100% and used to normalize the data. Shown values represent mean±SD (n=3). The IC50 was determined by fitting the data to a dose-response curve using nonlinear regression analysis (GraphPad Prism, version 6.02). FIG. 1B, FIG. 2B, FIG. 3B, FIG. 4B, FIG. 5B, and FIG. 6B show dose-response curves for identified inhibitors (the same as identified at the top of the respective figures) in in vitro cytotoxicity analysis. HEp-2 cells were treated with increasing concentration of compounds without RSV-infection to assess potential cytotoxicity of the compounds. 48 h post-treatment cells were analyzed using CellTiter-Glo® Luminescent Cell Viability Assay (Promega) to determine cell viability rates. Vehicle-treated cells were set as the reference at 100% of viability and used to normalize the data. Shown values represent mean+SD (n=3).

SARS-CoV-2 = SARS-CoV-2 viral inhibition assay on Vero E6 cells; type: cell-based; details: Severe acute respiratory syndrome coronavirus 2, Vero C1008, virus incubated with compound 10 min at 37° C., 27 hours post-infection
stability in solution = type: physicochemical; details: 500 μM in DMSO/PBS (5:95 v/v); room temperature or 37° C.; versus 4,5-DCQA (reference)

Structure (SMILES) | IC50 (RSV) [nM] | Cytotoxic concentration on HEp-2 cells (HEp-2 cells) | IC50 (SARS-CoV-2) [nM] | stability in solution (stability in solution)
O=C(/C=C/c1ccc(O)c(O)c1)O[C@@H]1[C@H](O)C[C@@](O)(C(=O)O)C[C@H]1OC(=O)/C=C/c1ccc(O)c(O)c1 [4,5-DCQA, reference compound] | 1090 | >80000 | 218 | 
O=C(OCCCOC(=O)c1cc(O)c(O)c(O)c1)c1cc(O)c(O)c(O)c1 [Compound 1, 3-(3,4,5-trihydroxybenzoyl)oxypropyl 3,4,5-trihydroxybenzoate] | 129 | 72737 |  | 
O=C(OCCCCCOC(=O)c1cc(O)c(O)c(O)c1)c1cc(O)c(O)c(O)c1 [Compound 2, 5-(3,4,5-trihydroxybenzoyl)oxypentyl 3,4,5-trihydroxybenzoate] | 4960 | >80000 |  | 
O=C(OCCCCCCCCOC(=O)c1cc(O)c(O)c(O)c1)c1cc(O)c(O)c(O)c1 [Compound 3, 8-(3,4,5-trihydroxybenzoyl)oxyoctyl 3,4,5-trihydroxybenzoate] | 145 | 9197 |  | 
CC(C)(COC(=O)c1cc(O)c(O)c(O)c1)COC(=O)c1cc(O)c(O)c(O)c1 [Compound 4, [2,2-dimethyl-3-(3,4,5-trihydroxybenzoyl)oxy-propyl]3,4,5-trihydroxybenzoate] | 162 | 63163 |  | 
O=C(OCCOCCOC(=O)c1cc(O)c(O)c(O)c1)c1cc(O)c(O)c(O)c1 [Compound 5, 2-[2-(3,4,5-trihydroxybenzoyl)oxyethoxy]ethyl 3,4,5-trihydroxybenzoate] | 9330 | 638066 |  | 
O=C(O[C@@H]1CCC[C@H](OC(=O)c2cc(O)c(O)c(O)c2)C1)c1cc(O)c(O)c(O)c1 [Compound 6, [(1R,3S)-3-(3,4,5-trihydroxybenzoyl)oxycyclohexyl]3,4,5-trihydroxybenzoate] | 165 | 61709 |  | 
O=C(OCC(O)COC(=O)c1cc(O)c(O)c(O)c1)c1cc(O)c(O)c(O)c1 [Compound 7, [2-hydroxy-3-(3,4,5-trihydroxybenzoyl)oxy-propyl]3,4,5-trihydroxybenzoate] | 339 | >80000 |  | 
NC(COC(=O)c1cc(O)c(O)c(O)c1)COC(=O)c1cc(O)c(O)c(O)c1 [Compound 8, [2-amino-3-(3,4,5-trihydroxybenzoyl)oxy-propyl]3,4,5-trihydroxybenzoate] | 87.7 | 66234 |  | 
O=C(OCC(COC(=O)c1cc(O)c(O)c(O)c1)OC(=O)c1cc(O)c(O)c(O)c1)c1cc(O)c(O)c(O)c1 [Compound 9, 2,3-bis[(3,4,5-trihydroxybenzoyl)oxy]propyl 3,4,5-trihydroxybenzoate] | 55.5 | 49099.5 |  | 
O=C(OCC(COC(=O)c1cc(O)c(O)c(O)c1)COC(=O)c1cc(O)c(O)c(O)c1)c1cc(O)c(O)c(O)c1 [Compound 10, [3-(3,4,5-trihydroxybenzoyl)oxy-2-[(3,4,5-trihydroxybenzoyl)oxymethyl]propyl]3,4,5-trihydroxybenzoate] | 47.2 | 75145 |  | 
CC(COC(=O)c1cc(O)c(O)c(O)c1)(COC(=O)c1cc(O)c(O)c(O)c1)COC(=O)c1cc(O)c(O)c(O)c1 [Compound 11, [2-methyl-3-(3,4,5-trihydroxybenzoyl)oxy-2-[(3,4,5-trihydroxybenzoyl)oxymethyl]-propyl]3,4,5-trihydroxybenzoate] | 36.7 | 47303 |  | 
CC(COC(=O)c1ccccc1)(COC(=O)c1cc(O)c(O)c(O)c1)COC(=O)c1cc(O)c(O)c(O)c1 [Compound 12, [2-(benzoyloxymethyl)-2-methyl-3-(3,4,5-trihydroxybenzoyl)oxy-propyl]3,4,5-trihydroxybenzoate] | 105 | 34098.5 |  | 
CC(COC(=O)c1ccccc1)(COC(=O)c1ccccc1)COC(=O)c1cc(O)c(O)c(O)c1 [Compound 13, [3-benzoyloxy-2-(benzoyloxymethyl)-2-methyl-propyl]3,4,5-trihydroxybenzoate] | 480 | 13042 |  | 
O=C(NCCCNC(=O)c1cc(O)c(O)c(O)c1)c1cc(O)c(O)c(O)c1 [Compound 14, 3,4,5-trihydroxy-N-[3-[(3,4,5-trihydroxybenzoyl)amino]propyl]benzamide] | 367 | 15677 |  | 
O=C(NCCCCCNC(=O)c1cc(O)c(O)c(O)c1)c1cc(O)c(O)c(O)c1 [Compound 15, 3,4,5-trihydroxy-N-[5-[(3,4,5-trihydroxybenzoyl)amino]pentyl]benzamide] | 408 | 45401 |  | 
O=C(NCCCCCCCCCCNC(=O)c1cc(O)c(O)c(O)c1)c1cc(O)c(O)c(O)c1 [Compound 16, 3,4,5-trihydroxy-N-[10-[(3,4,5-trihydroxybenzoyl)amino]decyl]benzamide] | 767 | >80000 |  | 
O=C(NCCN(CCNC(=O)c1cc(O)c(O)c(O)c1)C(=O)c1cc(O)c(O)c(O)c1)c1cc(O)c(O)c(O)c1 [Compound 17, 3,4,5-trihydroxy-N-[2-[(3,4,5-trihydroxybenzoyl)-[2-[(3,4,5-trihydroxybenzoyl)-amino]-ethyl]amino]ethyl]benzamide] | 155 | 36216 |  | 
CC(CNC(=O)c1cc(O)c(O)c(O)c1)(CNC(=O)c1cc(O)c(O)c(O)c1)CNC(=O)c1cc(O)c(O)c(O)c1 [Compound 18, 3,4,5-trihydroxy-N-[2-methyl-3-[(3,4,5-trihydroxybenzoyl)amino]-2-[[(3,4,5-trihydroxy-benzoyl)amino]methyl]propyl]benzamide] | 59.5 | >80000 |  | 
CC(CNC(=O)c1ccc(O)cc1)(CNC(=O)c1ccc(O)cc1)CNC(=O)c1ccc(O)cc1 [Compound 19, 4-hydroxy-N-[3-[(4-hydroxybenzoyl)amino]-2-[[(4-hydroxybenzoyl)amino]methyl]-2-methyl-propyl]benzamide] |  | >80000 |  | 
CC(CNC(=O)c1cccc(O)c1)(CNC(=O)c1cccc(O)c1)CNC(=O)c1cccc(O)c1 [Compound 20, 3-hydroxy-N-[3-[(3-hydroxybenzoyl)amino]-2-[[(3-hydroxybenzoyl)amino]methyl]-2-methyl-propyl]benzamide] |  | 76260 |  | 
CC(CNC(=O)c1ccc2c(c1)OCO2)(CNC(=O)c1ccc2c(c1)OCO2)CNC(=O)c1ccc2c(c1)OCO2 [Compound 21, N-[3-(1,3-benzodioxole-5-carbonylamino)-2-[(1,3-benzodioxole-5-carbonylamino)-methyl]-2-methyl-propyl]-1,3-benzodioxole-5-carboxamide] |  | >80000 |  | 
CC(CNC(=O)c1ccc(O)cc1O)(CNC(=O)c1ccc(O)cc1O)CNC(=O)c1ccc(O)cc1O [Compound 22, N-[3-[(2,4-dihydroxybenzoyl)amino]-2-[[(2,4-dihydroxybenzoyl)amino]methyl]-2-methyl-propyl]-2,4-dihydroxy-benzamide] |  | 17473 | 75.1 | 
CC(CNC(=O)c1ccc(O)c(O)c1)(CNC(=O)c1ccc(O)c(O)c1)CNC(=O)c1ccc(O)c(O)c1 [Compound 23, N-[3-[(3,4-dihydroxybenzoyl)amino]-2-[[(3,4-dihydroxybenzoyl)amino]methyl]-2-methyl-propyl]-3,4-dihydroxy-benzamide] | 35.7 | >80000 | 26 | improved stability
CC(CNC(=O)c1cccc(O)c1O)(CNC(=O)c1cccc(O)c1O)CNC(=O)c1cccc(O)c1O [Compound 24, N-[3-[(2,3-dihydroxybenzoyl)amino]-2-[[(2,3-dihydroxybenzoyl)amino]methyl]-2-methyl-propyl]-2,3-dihydroxy-benzamide] |  | 5822.5 |  | 
